As a reminder, the MIC is the lowest concentration that inhibits growth of the organism. Read a low MIC as inhibition by little substance.

Drawing on DBAASP, this text covers MIC for seven compounds.

≈ marks a conversion by molar mass, not a printed value.

Holding throughout (experiment): ≥ marks a high value that may be exact or a test limit, other limits are often not marked, values filed in µg/mL are converted to µM
The subject of test [1] is Escherichia coli JW55034.
Test [2] has as its system Pseudomonas aeruginosa ATCC 27853.
Test [3] has as its system Acinetobacter baumannii Josh 28.
Test [4] relates to Escherichia coli ARLG-1012.
Test [5] has as its system Enterobacter cloacae St. L P23.
In test [6] the test system is Enterobacter cloacae BB2013-32.
The subject of test [7] is Acinetobacter baumannii Josh 230.
The test system of test [8] is Enterobacter asburiae St. L P23.
Test [9] relates to Klebsiella aerogenes St. L P63.
For test [10], the system named is Escherichia coli BW25113.
Test [11] deals with Pseudomonas aeruginosa J4228.
The test system of test [12] is Klebsiella pneumoniae J3702.
Test [13] has as its system Pseudomonas aeruginosa BB2013-100.
For test [14], the system named is Enterobacter cloacae BB2012-181.
Test [15] relates to Klebsiella pneumoniae BB2009-209.
Test [16] has as its system Escherichia coli BB2013-30.
Test [17] relates to Klebsiella pneumoniae Oschner KP-1.
Test [18] relates to Staphylococcus aureus ATCC 25923.
The subject of test [19] is Pseudomonas aeruginosa ATCC 15692.
The test system of test [20] is Staphylococcus epidermidis KCTC 1917.
For test [21], the system named is Listeria monocytogenes KCTC 19111.
Test [22] relates to Salmonella typhimurium KCTC 1926.
Test [23] deals with Escherichia coli ATCC 25922.
The subject of test [24] is Bacillus subtilis 168 HT.
For test [25], the system named is Escherichia coli MG1655.
In test [26] the test system is Pseudomonas aeruginosa H1001.

`CC[C@H](C)[C@H](NC(=O)[C@H](C)N)C(=O)N[C@@H](CCCCN)C(=O)N[C@H](C(=O)N[C@@H](CCCN=C(N)N)C(=O)N[C@@H](CCCCN)C(=O)N[C@@H](CC(C)C)C(=O)N[C@@H](Cc1ccccc1)C(=O)N[C@@H](CCCCN)C(=O)N[C@@H](CCCCN)C(=O)N[C@@H](CC(C)C)C(=O)N[C@@H](CC(C)C)C(=O)N[C@@H](CCCN=C(N)N)C(N)=O)[C@@H](C)CC` [AIKIRKLFKKLLR]: the minimum inhibitory concentration (MIC) was found to be 4.92 µM (≈ 8 µg/mL) in test [1]; 2.46 µM (≈ 4 µg/mL) in [2]; 2.46 µM (≈ 4 µg/mL) in [3]; 4.92 µM (≈ 8 µg/mL) in test [4]; 19.7 µM (≈ 32 µg/mL) in test [5]; 19.7 µM (≈ 32 µg/mL) in [6]. Also, the minimal inhibitory concentration (MIC) in test [7] is 9.83 µM (≈ 16 µg/mL); in [8] it was 19.7 µM (≈ 32 µg/mL); in [9], 19.7 µM (≈ 32 µg/mL); in test [10], 4.92 µM (≈ 8 µg/mL); in test [11] it was 4.92 µM (≈ 8 µg/mL); in test [12], 19.7 µM (≈ 32 µg/mL). Moreover, the MIC in test [13] was 19.7 µM (≈ 32 µg/mL); in test [14], 19.7 µM (≈ 32 µg/mL); in test [15], 19.7 µM (≈ 32 µg/mL); in test [16], 9.83 µM (≈ 16 µg/mL); in test [17] it was 19.7 µM (≈ 32 µg/mL).

With `CC[C@H](C)[C@H](NC(=O)[C@H](Cc1cnc[nH]1)NC(=O)[C@H](CCCCN)NC(=O)[C@H](CCCCN)NC(=O)[C@H](CC(C)C)NC(=O)[C@H](CCCCN)NC(=O)[C@H](CCCCN)NC(=O)[C@H](CC(C)C)NC(=O)[C@H](Cc1ccccc1)NC(=O)[C@H](Cc1ccccc1)NC(=O)[C@H](CCCCN)NC(=O)[C@@H](NC(=O)CN)[C@@H](C)CC)C(N)=O` [GIKFFLKKLKKHI], the MIC turned out to be 5 µM (≈ 8 µg/mL) in test [1]; 5 µM (≈ 8 µg/mL) in [2]; 1.25 µM (≈ 2 µg/mL) in test [3]; 5 µM (≈ 8 µg/mL) in [4]; 20 µM (≈ 32 µg/mL) in test [5]; 10 µM (≈ 16 µg/mL) in [6]. Also, the minimal inhibitory concentration (MIC) in test [7] was 2.5 µM (≈ 4 µg/mL); in test [8] it was 20 µM (≈ 32 µg/mL); in [9], 10 µM (≈ 16 µg/mL); in test [10] it was 5 µM (≈ 8 µg/mL); in [11], 10 µM (≈ 16 µg/mL); in test [12] it was 20 µM (≈ 32 µg/mL). Further, the MIC was determined as 20 µM (≈ 32 µg/mL) in test [13]; 20 µM (≈ 32 µg/mL) in test [14]; 20 µM (≈ 32 µg/mL) in test [15]; 10 µM (≈ 16 µg/mL) in test [16]; 20 µM (≈ 32 µg/mL) in [17].

As for `CC(C)[C@H](NC(=O)[C@H](Cc1c[nH]c2ccccc12)NC(=O)[C@H](CCCCN)NC(=O)[C@H](CCCCN)NC(=O)[C@@H](NC(=O)[C@H](Cc1c[nH]c2ccccc12)NC(=O)[C@H](CCCCN)NC(=O)[C@H](CCCCN)NC(=O)[C@@H](NC(=O)[C@H](Cc1c[nH]c2ccccc12)NC(=O)[C@@H](N)CCCCN)C(C)C)C(C)C)C(=O)N[C@@H](CCCCN)C(N)=O` [KWVKKWVKKWVK], the minimal inhibitory concentration (MIC) in test [18] is 16 µM (≈ 26.3 µg/mL); in test [19], 4 µM (≈ 6.57 µg/mL); in test [20], 4 µM (≈ 6.57 µg/mL); in [21] it was 4 µM (≈ 6.57 µg/mL); in test [22] it was 2 µM (≈ 3.28 µg/mL); in test [23], 1 µM (≈ 1.64 µg/mL).

For the compound `CC[C@H](C)[C@H](NC(=O)[C@@H](N)CC(C)C)C(=O)N[C@H](C(=O)N[C@@H](CC(C)C)C(=O)N[C@H](C(=O)N[C@@H](CS)C(=O)N[C@@H](CCCN=C(N)N)C(=O)N[C@@H](CCCCN)C(=O)N[C@@H](CCCCN)C(=O)N[C@@H](CCCCN)C(=O)N[C@@H](CCCCN)C(=O)N1CCC[C@H]1C(=O)N[C@@H](Cc1ccccc1)C(=O)O)[C@@H](C)O)C(C)C` [LIVLTCRKKKKPF], the MIC in test [24] is not below 40.7 µM; in test [25], not below 81 µM.

With `NC(=O)[C@H](CCCN=C(N)N)NC(=O)[C@H](CCCN=C(N)N)NC(=O)[C@H](Cc1c[nH]c2ccccc12)NC(=O)[C@H](CCCN=C(N)N)NC(=O)[C@H](Cc1c[nH]c2ccccc12)NC(=O)[C@H](Cc1c[nH]c2ccccc12)NC(=O)[C@@H](N)CCCN=C(N)N` [RWWRWRR], the MIC in test [26] is not below 208 µM.

In test [26], `CC(C)C[C@H](NC(=O)[C@H](Cc1ccc(O)cc1)NC(=O)[C@@H]1CCCN1C(=O)[C@@H]1CCCN1C(=O)[C@H](CCCCN)NC(=O)[C@H](CC(=O)O)NC(=O)[C@@H](N)C(C)C)C(=O)N1CCC[C@H]1C(=O)N[C@@H](CCCN=C(N)N)C(=O)N1CCC[C@H]1C(=O)N[C@@H](CCCN=C(N)N)C(=O)N1CCC[C@H]1C(=O)N1CCC[C@H]1C(=O)N[C@@H](CCCN=C(N)N)C(=O)N[C@@H](CCCN=C(N)N)C(=O)N[C@@H](CS)C(=O)N[C@@H](Cc1ccc(O)cc1)C(=O)N[C@@H](CC(N)=O)C(=O)N[C@@H](CCCN=C(N)N)C(=O)NCC(=O)O` [VDKPPYLPRPRPPRRCYNRG] had a minimum inhibitory concentration (MIC) of 0.0328 µM (≈ 0.08 µg/mL).

Consider `CC[C@H](C)[C@H](NC(=O)CNC(=O)[C@H](C)NC(=O)[C@H](Cc1cnc[nH]1)NC(=O)[C@@H](NC(=O)[C@H](CCCCN)NC(=O)[C@H](Cc1ccc(O)cc1)NC(=O)[C@@H]1CCCN1C(=O)[C@@H](NC(=O)[C@H](CC(C)C)NC(=O)[C@H](CCCCN)NC(=O)[C@H](CCCCN)NC(=O)[C@@H](N)Cc1c[nH]c2ccccc12)C(C)C)[C@@H](C)CC)C(=O)O` [WKKLVPYKIHAGI], for which the minimum inhibitory concentration (MIC) in test [24] and in test [25] was not below 82 µM throughout.
